Holding throughout (format): cell-based
Assay [1] concerns C. glabrata YEM-17 (CgCDR overexpressor). The experiment in a line: microbe, parasite or virus in culture. As to conditions: Nakaseomyces glabratus, read-out: Itraconazole MIC.
In assay [2] the test system is C. albicans YEM-15 (CDR1 & CDR2 overexpressor). The assay can be described thus: microbe, parasite or virus in culture. As to conditions: Candida albicans, read-out: Itraconazole MIC.
The test system of another assay is C. krusei YEM-71. The experiment in a line: Broth dilution checkerboard, azoles and terbinafine with milbemycin α9 (Table 8). The following applies: Pichia kudriavzevii, YEM71; YEM-71; alone; read-out: Itraconazole MIC. On the technique in general: In broth dilution the organism is exposed to a series of concentrations in liquid medium.
For the next assay, the system named is Aspergillus fumigatus. The assay can be described thus: FEPI MICs in combination with 1/4 the azole's MIC (Table 12). More on the design: FEPI MIC (alone): unit not given here. As to conditions: for FEPI MIC with fluconazole, 60% Inh / FEPI MIC with fluconazole, 80% Inh: fluconazole 32 μg/ml (1/4 MIC); for FEPI MIC with fluconazole, 60% Inh / FEPI MIC with itraconazole, 60% Inh / FEPI MIC with ketoconazole, 60% Inh: 60% inhibition; for FEPI MIC with fluconazole, 80% Inh / FEPI MIC with itraconazole, 80% Inh / FEPI MIC with ketoconazole, 80% Inh / FEPI MIC (alone): 80% inhibition; for FEPI MIC with itraconazole, 60% Inh / FEPI MIC with itraconazole, 80% Inh: itraconazole 0.063 μg/ml (1/4 MIC); for FEPI MIC with ketoconazole, 60% Inh / FEPI MIC with ketoconazole, 80% Inh: ketoconazole 4 μg/ml (1/4 MIC); for FEPI MIC (alone): no azole, 35° C., CM Broth. As to the method: The combinations were tested against a series of Candida strain with known expression of efflux pumps or with complete deletion of all known pumps and Aspergillus fumigatus. Results are reported as minimum inhibitory concentration (MIC) of […] in the presence or absence of […]. A total of 27 distinct milbemycins were studied.

A further assay relates to YEM 30 C. albicans wt. The experiment in a line: FEPI MIC with/without 1/8 fluconazole MIC at 24 hrs (Table 11). The following applies: YEM 30, 24 hrs, 80% inhibition; for MIC of compound in the presence of fluconazole (+): 1/8 × MIC of fluconazole.
A further assay relates to YEM 51 C. glabrata wt. The description is as above. The following applies: YEM 51, 24 hrs, 80% inhibition; for MIC of compound in the presence of fluconazole (+): 1/8 × MIC of fluconazole.
The subject of assay [3] is YEM 24 C. albicans ΔCDR1, ΔCDR2. The experiment in a line: microbe, parasite or virus in culture. The following applies: YEM 24, 24 hrs, 80% inhibition; for MIC of compound in the presence of fluconazole (+): 1/8 × MIC of fluconazole.
In assay [4] the test system is YEM 13 C. albicans BEN up. The assay can be described thus: microbe, parasite or virus in culture. The following applies: YEM 13, 24 hrs, 80% inhibition; for MIC of compound in the presence of fluconazole (+): 1/8 × MIC of fluconazole.
Assay [5] concerns YEM 27 C. albicans ΔCDR1ΔCDR2 ΔBENΔFLU1. The experiment in a line: microbe, parasite or virus in culture. As to conditions: YEM 27, 24 hrs, 80% inhibition; for MIC of compound in the presence of fluconazole (+): 1/8 × MIC of fluconazole.
The subject of assay [6] is YEM 15 C. albicans, CDR1CDR2 up. The experiment in a line: microbe, parasite or virus in culture. As to conditions: YEM 15, 24 hrs, 80% inhibition; for MIC of compound in the presence of fluconazole (+): 1/8 × MIC of fluconazole.
For assay [7], the system named is YEM 17 C. glabrata, CgCDR up. The following applies: 24 hrs, 80% inhibition; for MIC of compound in the presence of fluconazole (+): 1/8 × MIC of fluconazole.
Another assay concerns YEM 53 C. krusei. The assay can be described thus: FEPI MIC with/without 1/8 fluconazole MIC at 24 hrs (Table 11). The following applies: YEM 53, 24 hrs, 80% inhibition; for MIC of compound in the presence of fluconazole (+): 1/8 × MIC of fluconazole.

Values after ≈ are worked out from the molar mass of the structure shown. Bounds are passed on as bounds.

Regarding `CCC(C)n1ncn(-c2ccc(N3CCN(c4ccc(OCC5COC(Cn6cncn6)(c6ccc(Cl)cc6Cl)O5)cc4)CC3)cc2)c1=O` (stereo not shown) [Itraconazole, itraconazole, reference compound], the MIC came to 128 µg/mL (≈ 181 µM) in assay [1], 0.5 µg/mL (≈ 0.709 µM) in [2] and 0.5 µg/mL in the assay with C. krusei YEM-71.
On to “8-Methyl-5,6-dihydroxymilbemycin β1 [Compound 19]”, for which, in the assay with Aspergillus fumigatus, the “FEPI MIC with fluconazole, 60% Inh” value is given as 32. Moreover, the “FEPI MIC with fluconazole, 80% Inh” value with Aspergillus fumigatus is on record as 64. Further, the “FEPI MIC with itraconazole, 60% Inh” value in the assay on Aspergillus fumigatus stood at 8. For the same compound, the “FEPI MIC with itraconazole, 80% Inh” value with Aspergillus fumigatus was greater than 64. In the assay on Aspergillus fumigatus, the “FEPI MIC with ketoconazole, 60% Inh” value is recorded as “≦0.063”. Also, the “FEPI MIC with ketoconazole, 80% Inh” value with Aspergillus fumigatus is given as “≦0.063”. The “FEPI MIC (alone)” value in the assay with Aspergillus fumigatus is 64. The “MIC of compound in the presence of fluconazole (+)” value in the assay with YEM 30 C. albicans wt is “≦0.03”; in the assay on YEM 51 C. glabrata wt, greater than 64 µg/mL; in [3] it was 32 µg/mL; in [4] it was 16 µg/mL; in assay [5] it was 16 µg/mL; in [6], “≦0.03”. Also, the MIC of compound in the presence of fluconazole (+) stood at 64 µg/mL in assay [7] and 8 µg/mL in the assay with YEM 53 C. krusei. In addition, the MIC of compound in the absence of fluconazole (−) in the assay on YEM 30 C. albicans wt was 8 µg/mL; in the assay on YEM 51 C. glabrata wt, greater than 64 µg/mL; in [3], greater than 64 µg/mL; in assay [4], greater than 64 µg/mL; in assay [5] it was greater than 64 µg/mL; in assay [6], greater than 64 µg/mL. In addition, the MIC of compound in the absence of fluconazole (−) (in assay [7]; with YEM 53 C. krusei) was greater than 64 µg/mL each time.
For the compound `CO[C@H]1C[C@@]2(O)/C(C=O)=C/C=C/[C@H](C)C/C(C)=C/C[C@@H]3C[C@@H](C[C@]4(CC[C@H](C)[C@@H](C)O4)O3)OC(=O)[C@@H]2C=C1C` [Compound 5, Milbemycin β1 aldehyde], the “FEPI MIC with fluconazole, 60% Inh” value in the assay with Aspergillus fumigatus was found to be 4. In addition, the “FEPI MIC with fluconazole, 80% Inh” value in the assay with Aspergillus fumigatus came out at 64. In addition, in the assay on Aspergillus fumigatus, the “FEPI MIC with itraconazole, 60% Inh” value is on record as 0.5. The “FEPI MIC with itraconazole, 80% Inh” value in the assay with Aspergillus fumigatus turned out to be 32. In addition, the “FEPI MIC with ketoconazole, 60% Inh” value with Aspergillus fumigatus is reported as “≦0.063”. Moreover, the “FEPI MIC with ketoconazole, 80% Inh” value with Aspergillus fumigatus is recorded as “≦0.063”. Further, the “FEPI MIC (alone)” value in the assay on Aspergillus fumigatus was determined as 64. Further, the “MIC of compound in the presence of fluconazole (+)” value in the assay with YEM 30 C. albicans wt is “≦0.03”; in the assay with YEM 51 C. glabrata wt it was 0.25 µg/mL; in assay [3], greater than 64 µg/mL; in assay [4], 64 µg/mL; in [5], 64 µg/mL; in assay [6], “≦0.03”. The MIC of compound in the presence of fluconazole (+) in assay [7] is 0.125 µg/mL; in the assay with YEM 53 C. krusei, greater than 64 µg/mL. The MIC of compound in the absence of fluconazole (−) (in the assay on YEM 30 C. albicans wt; in the assay with YEM 51 C. glabrata wt; in assay [3]; in assay [4]; in assay [5]; in [6]) was greater than 64 µg/mL each time. Also, the MIC of compound in the absence of fluconazole (−) (in [7]; with YEM 53 C. krusei) was greater than 64 µg/mL throughout.
